Assay results as given in US20250270216A1, “ANTI-INFECTIVE AGENTS” (UNIVERSITY OF DUNDEE, priority 2022, published 2025).

Experiments:
[1] = molecular target: T1, Human lysyl tRNA Synthetase (KRS) (Homo sapiens, UniProt Q15046); assay: In vitro inhibition of human lysyl tRNA synthetase (KRS), Biomol green phosphate detection; format: biochemical; conditions: 3.5 μM ATP, 6 μM L-Lysine, 5 h room temperature; read-out: Hs KRS pIC50 (converted)
T1 construct: His tag with PreScission site (His PP pET15b); made in house; host or cells: E. coli BL21 (DE3)
Experimental: The gene coding for Human KRS, codon optimized for expression in E. coli, was obtained from Genscript and cloned into a His PP pET15b vector using Nde1 and Xho1 restriction sites. The resulting vector was used to transform BL21 (DE3) competent cells for protein expression. A 120 ml overnight culture was set up and grown at 37° C. 200 rpm for 16 h and used the next day to inoculate 6 litres of Autoinduction+AMP medium. This culture was grown at 37° C. for 4 h then 20° C. for 20 h. The cells were harvested by centrifugation at 3,500 g for 30 min then stored at −20° C. The resulting cell pellet was 50 g. Lysis buffer (150 ml, 25 mM HEPES/500 mM NaCl/20 mM imidazole/2 mM DTT/10% glycerol pH 7.5/protease inhibitor tablets/DNAase) was added and the pellets for defrosted at room temperature for approximately 10 min. The slurry was then passed through a Cell Disrupter (Constant Systems) set at […] to lyse the cells. The sample was then centrifuged at 40,000 g for 20 min. The supernatant was then filtered using syringe filters to 0.45 μm. The supernatant was loaded onto a 5 ml HiTrap Ni HP column that had been equilibrated with BufferA (25 mM HEPES/500 mM NaCl/20 mM Imidazole/2 mM DTT/10% Glycerol pH 7.5) at 5 ml/min using an AKTA Pure system. Once loaded the column was washed with 10 column volumes buffer A. A 5% step of Buffer B (25 mM HEPES/500 mM NaCl/500 mM Imidazole/2 mM DTT/10% Glycerol pH 7.5) was then used to wash off His rich contaminating proteins. A gradient of 5-50% B was used to elute the protein. Approximately 55 mg of protein was present in the fractions containing the HsKRS protein. The sample was then passed through a 0.2 μm filter, before loading onto a XK26/60 Superdex 200 column equilibrated with Buffer C (25 mM HEPES/150 mM NaCl/2 mM DTT/10% glycerol pH 7.0) using an AKTA Pure system at 4° C. at 2 ml/min. The sample was then dialyzed into 25 mM HEPES/500 mM NaCl//2 mM DTT/10% glycerol/0.25% azide pH 7.0. The protein was concentrated to 1 mg/ml and frozen at −80° C. Approximately 23 mg of protein was produced.
Assay Method for Measurement of In Vitro Inhibition of Human lysyl tRNA Synthetase (KRS)
Potency of compounds was determined in 10 points dose-response inhibition curves. Compounds were transferred into 384-well clear bottom plates (Greiner Bio-One, 781101) using an Echo 550 acoustic dispenser (Labcyte). Using an automatic liquid dispenser, 50 μL reaction mixes were prepared by adding 25 μL of substrate mix into all wells followed by the addition of 25 μL enzyme mix into all wells (final reaction: 30 mM Tris-HCl, pH 8.0, 40 mM MgCl2, 140 mM NaCl, 30 mM KCl, 0.01% Brij-35, 1 mM DTT, 3.5 μM ATP, 6 μM L-Lysine, 200 nM […] and 0.5 U/mL Pyrophosphatase). Complete inhibition control reactions were performed in the presence of 100 μM of control compoundand the plates were incubated at room temperature for 5 h. Reactions were stopped by the addition of Biomol green (50 μL: Enzo Life Sciences) with the amount of free phosphate detected by measuring absorbance (650 nm) after 20 min further incubation (BMG Pherastar plate reader). Counter screen assays to eliminate direct inhibition of pyrophsphatase were performed using 0.5 U/mL pyrophosphatase and 3 μM pyrophosphate as substrate in the same assay buffer (30 mM Tris-HCl, pH 8.0, 40 mM MgCl2, 140 mM NaCl, 30 mM KCl, 0.01% Brij-35, 1 mM DTT) for 5 hours at room temperature. Biomol green was added and incubated for 20 min before detection as above. Samples were run in duplicate and data was processed and analysed using ActivityBase (IDBS).

Cryptosporidium parvum = assay: In vitro inhibition of Cryptosporidium (method of Bessoff et al.); format: cell-based; conditions: read-out: C. parvum PEC50 (converted)
Source text: Assay Method for Measurement of In Vitro Inhibition of Cryptosporidium
These experiments were run in accordance with the method of Besssoff et. al. Antimicrob. Agents Chemother. 2013, 57:1804-1814. Results from these experiments are provided in the Experimental Results hereinafter.

C. parvum Iowa strain = assay: Cryptosporidiosis NOD SCID gamma mouse model, fecal oocyst shedding by quantitative PCR; format: in vivo, Cryptosporidium parvum; conditions: NOD SCID gamma mice, average reduction in oocyst shedding compared to untreated vehicle
Source text: The in vivo measurement of the potential efficacy of compounds of formula (I) in a cryptosporidium mouse model has been carried out following the method described in Antimicrob. Agents Ch., 2018, 62, 4, e01505-17, and which is summarised below. The cryptosporidiosis NOD SCID gamma mouse model was run as follows: Male NOD SCID gamma mice (NOD.Cg-Prkdc^scid II2rg^tm1Wjt/SzJ, Jackson Labs) were infected approximately 2 weeks post weaning with 10^5 C. parvum Iowa strain oocysts by oral gavage. Four mice were used per experimental group. This establishes a chronic, asymptomatic infection of the small intestine, cecum, and biliary tree. Fecal parasite shedding is monitored by quantitative PCR to amplify C. parvum DNA. One week after infection (which is the timing with which shedding becomes uniformly detected), compounds are dosed by oral gavage. Treatment continued for seven days total. The number of oocysts per milligram of stool was measured for each mouse on day 8 (1 day after completion of the last dose) and day 15 […] (7 days after the completion of the last dose). Average oocyst concentrations were calculated for each group of mice. Log reduction is the average reduction in oocyst shedding compared to untreated vehicle. These experiments were run in accordance with the method of C. D. Huston et al, Antimicrob. Agents Ch., 2018, 62, 4, e01505-17.

T1 sequence (Q15046 whole entry): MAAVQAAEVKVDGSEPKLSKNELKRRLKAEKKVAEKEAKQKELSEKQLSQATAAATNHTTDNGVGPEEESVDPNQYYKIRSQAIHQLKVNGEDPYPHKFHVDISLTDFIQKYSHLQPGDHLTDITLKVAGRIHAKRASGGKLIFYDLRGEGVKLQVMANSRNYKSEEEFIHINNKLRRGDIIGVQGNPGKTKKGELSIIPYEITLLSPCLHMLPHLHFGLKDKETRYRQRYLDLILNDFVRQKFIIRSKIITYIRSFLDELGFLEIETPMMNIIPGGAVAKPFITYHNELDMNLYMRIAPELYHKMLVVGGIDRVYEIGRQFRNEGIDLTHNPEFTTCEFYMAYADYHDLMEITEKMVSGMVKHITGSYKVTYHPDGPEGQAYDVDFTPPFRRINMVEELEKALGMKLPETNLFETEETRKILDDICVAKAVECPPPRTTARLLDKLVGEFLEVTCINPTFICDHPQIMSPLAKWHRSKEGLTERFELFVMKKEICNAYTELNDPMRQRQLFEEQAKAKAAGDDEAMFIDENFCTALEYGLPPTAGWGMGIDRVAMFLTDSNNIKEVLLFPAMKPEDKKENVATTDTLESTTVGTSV

SMILES | IC50 [1] [nM] | EC50 (Cryptosporidium parvum) [nM] | Log Reduction (day 8) (C. parvum Iowa strain; 10 mg/kg P.O. B.I.D. 7 days) | Log Reduction (day 15) (C. parvum Iowa strain; 10 mg/kg P.O. B.I.D. 7 days) | Log Reduction (day 8) (C. parvum Iowa strain; 20 mg/kg P.O. B.I.D. 7 days) | Log Reduction (day 15) (C. parvum Iowa strain; 20 mg/kg P.O. B.I.D. 7 days) | Log Reduction (day 8) (C. parvum Iowa strain; 30 mg/kg P.O. B.I.D. 7 days) | Log Reduction (day 15) (C. parvum Iowa strain; 30 mg/kg P.O. B.I.D. 7 days) | Log Reduction (day 8) (C. parvum Iowa strain; 40 mg/kg P.O. B.I.D. 7 days) | Log Reduction (day 15) (C. parvum Iowa strain; 40 mg/kg P.O. B.I.D. 7 days) | Log Reduction (day 8) (C. parvum Iowa strain; 50 mg/kg P.O. B.I.D. 7 days) | Log Reduction (day 15) (C. parvum Iowa strain; 50 mg/kg P.O. B.I.D. 7 days)
Nc1nc2c(c(C(F)(F)F)n1)C(=O)N(C[C@@H]1CCC[C@H](C(F)(F)F)C1)C2 [Compound 1, 2-amino-4-(trifluoromethyl)-6-(((1R,3S)-3-(trifluoromethyl)cyclohexyl)methyl)-6,7-dihydro-5H-pyrrolo[3,4-d]pyrimidin-5-one] | 20000 | 31.6 | 3.0 | 1.0 | 3.1 | 0.7 | 2.9 | 2.2 | 2.6 | 2.9 | 3.4 | 3.5
Nc1nc2c(c(C(F)(F)F)n1)C(=O)N(CC1CCCC3(CC3)C1)C2 (racemic) [Compound 4, 2-amino-6-(spiro[2.5]octan-5-ylmethyl)-4-(trifluoromethyl)-6,7-dihydro-5H-pyrrolo[3,4-d]pyrimidin-5-one] | > 100000 | 158 | 1.3 | 1.0 |  |  |  |  |  |  | 3.4 | 2.5
Cc1nc(N)nc2c1C(=O)N(C[C@@H]1CCC[C@H](C(F)(F)F)C1)C2 [Compound 2, 2-amino-4-methyl-6-(((1R,3S)-3-(trifluoromethyl)cyclohexyl)methyl)-6,7-dihydro-5H-pyrrolo[3,4-d]pyrimidin-5-one] | 20000 | 20 | 1.8 | 0.8 |  |  | 2.7 | 2.4 |  |  |  | 
Nc1nc2c(c(C(F)F)n1)C(=O)N(C[C@@H]1CCC[C@H](C(F)(F)F)C1)C2 [Compound 3, 2-amino-4-(difluoromethyl)-6-(((1R,3S)-3-(trifluoromethyl)cyclohexyl)methyl)-6,7-dihydro-5H-pyrrolo[3,4-d]pyrimidin-5-one] | > 100000 | 25.1 | 2.4 | 1.0 |  |  | 2.8 | 1.6 |  |  |  | 
